Activity calls are given as the source filed them.
Tests used:
Assay type in all cases: functional, cell-based
MT2 [1] = assay: Tested for antiproliferative activity against human tumor MT-2 T-lymphoid cells up to 72 hrs at concentration of 1.25 ug/ml; Inactive
MT2 [2] = assay: Tested for antiproliferative activity against human tumor MT-2 T-lymphoid cells up to 72 hrs at concentration of 5 ug/ml; Inactive
[3] = Tested for cell count against human tumor DAUDI EBV-immortalized B-lymphoid cells for antiproliferative activity; Inactive
[4] = Tested for cell count against human tumor MT-2 T-lymphoid cells for antiproliferative activity; Inactive
[5] = Tested for antiproliferative activity against human tumor U937 cell line up to 72 hrs at concentration of 5 ug/ml; Inactive
MT2 [6] = assay: Tested for antiproliferative activity against human tumor MT-2 T-lymphoid cells up to 72 hrs at concentration of 2.5 ug/ml; Inactive
[7] = Tested for antiproliferative activity against human tumor U937 cell line up to 72 hrs at concentration of 2.5 ug/ml; Inactive
MOLT-4 [8] = assay: Tested for antiproliferative activity against human tumor Molt-4 cell line up to 72 hrs at concentration of 1.25 ug/ml; Inactive
[9] = Tested for antiproliferative activity against human tumor U937 cell line up to 72 hrs at concentration of 1.25 ug/ml; Inactive
[10] = Tested for cell count against human tumor HL60 myeloid cells for antiproliferative activity; Inactive
Daudi [11] = assay: Tested for antiproliferative activity against human tumor DAUDI EBV-immortalized B-lymphoid cells up to 72 hrs at concentration of 10 ug/ml; Inactive
[12] = Tested for antiproliferative activity against human tumor U937 cell line up to 72 hrs at concentration of 10 ug/ml; Inactive
MOLT-4 [13] = assay: Tested for antiproliferative activity against human tumor Molt-4 cell line up to 72 hrs at concentration of 10 ug/ml; Inactive
Daudi [14] = assay: Tested for antiproliferative activity against human tumor DAUDI EBV-immortalized B-lymphoid cells up to 72 hrs at concentration of 2.5 ug/ml; Inactive
Daudi [15] = assay: Tested for antiproliferative activity against human tumor DAUDI EBV-immortalized B-lymphoid cells up to 72 hrs at concentration of 1.25 ug/ml; Inactive
[16] = Tested for cell count against human tumor Molt-4 cell line for antiproliferative activity; Inactive
MOLT-4 [17] = assay: Tested for antiproliferative activity against human tumor Molt-4 cell line up to 72 hrs at concentration of 2.5 ug/ml; Inactive
K562 = assay: Tested for cell count against human tumor K562 erythromyeloid stem cells for antiproliferative activity; Inactive
MOLT-4 [18] = assay: Tested for antiproliferative activity against human tumor Molt-4 cell line up to 72 hrs at concentration of 5 ug/ml; Inactive
MT2 [19] = assay: Tested for antiproliferative activity against human tumor MT-2 T-lymphoid cells up to 72 hrs at concentration of 10 ug/ml; Inactive
Daudi [20] = assay: Tested for antiproliferative activity against human tumor DAUDI EBV-immortalized B-lymphoid cells up to 72 hrs at concentration of 5 ug/ml; Inactive

Measured: Activity

CCC[C@H]1C[C@@H](CO)OC1n1ccc(=O)[nH]c1=O (stereo partly drawn)
inactive: all assays above

CC1[C@@H](O)[C@@H](CO)O[C@H]1n1ccc(=O)[nH]c1=O (single isomer, unassigned; 5b)
inactive: all assays above

CCCC1C(O)[C@@H](CO)O[C@H]1n1ccc(=O)[nH]c1=O (single isomer, unassigned)
inactive: all assays above

CCCC1C(O)[C@@H](CO)O[C@H]1n1ccc(N)nc1=O (single isomer, unassigned)
inactive: all assays above

C[C@H]1C[C@@H](CO)O[C@H]1n1ccc(=O)[nH]c1=O
inactive: all assays above

C=CCC1C(O)[C@@H](CO)O[C@H]1n1ccc(=O)[nH]c1=O (single isomer, unassigned)
inactive: all assays above

C[C@@H]1C[C@@H](CO)O[C@H]1n1ccc(=O)[nH]c1=O
inactive: all assays above

C=CCC1C(O)[C@@H](CO)O[C@H]1n1ccc(N)nc1=O (single isomer, unassigned)
inactive: all assays above

Source: ChEMBL document CHEMBL1151562, “Stereoselective synthesis of novel analogues of 2-deoxy- and 2,3-dideoxynucleosides with potential antiviral activity” (Bioorg Med Chem Lett, 1994)
